Laboratory results as given in patent US12251417B2, “Antimicrobial compounds from the genus Delftia” (Ministry of Health, State of Israel, priority 2017, dated 2025).
≈ marks a conversion by molar mass, not a printed value. Square brackets hold non-standard residues; d marks the D form. Peptide text beside a SMILES is read from it. * marks the point of attachment. ξ: configuration not given here. NH(1-OH-2-oxopiperidin-3-yl) = O=C1C(N*)CCCN1O; ξOrn(N(OH)CHO) = NC(CCCN(O)C=O)C(=O)O; ξAsp(3ξ-OH) = NC(C(=O)O)C(O)C(=O)O; X1 = CC(N)C(O)C(C)C(=O)*; Dhb = C/C=C(\N)C(=O)O

How the values were obtained:
HepG2 = experiment: MTT cytotoxicity assay; assay type: cell-based, human; settings: 24/72 hours
Description: (§1) MTT (3-(4,5-Dimethylthiazol-2-yl)-2,5-diphenyltetrazolium bromide) is a colorimetric assay for measuring the activity of cellular enzymes that reduce the tetrazolium dye, MTT, to its insoluble formazan, giving a purple color. This assay measure mitochondrial metabolic activity via NAD(P)Hdependent cellular oxidoreductase enzymes and may, under defined conditions, reflect the number of viable cells. The cells used in this study were: Hep G2 (HB-8065) is a perpetual cell line which was derived from the liver tissue of a person with a well-differentiated hepatocellular carcinoma. THLE-2 is a perpetual cell line which was derived from the liver epithelial cells of an adult human transformed with SV40 large T antigen.
(§2) The assay: cell concentration treatment 24 hours: Cells were seeded at a concentration of 2×10^4 cells/well in 200 μl culture medium and incubated at 37° C. in 5% CO2. Cell concentration treatment 72 hours: Cells were seeded at a concentration of 1×10^4 cells/well in 200 μl culture medium and incubated at 37° C. in 5% CO2. After 24 hours, the medium was replaced with a final volume of 200 μl and 1 μl of compound (dilution 1/200) and controls were added to the plates. […]
(§3) When extracts/compounds and controls were added, plates were incubated at 37° C. in 5% CO2 incubator for 24/72 hours. […] The absorbance was measured using a multireader Victor™ at a wavelength of 570 nm.

THLE2 = experiment: MTT cytotoxicity assay; assay type: cell-based, human; settings: 24/72 hours
Description: as §1, §2, §3

C. albicans ATCC64124 = experiment: Broth microdilution MIC; assay type: cell-based; settings: lowest concentration that inhibited ≥50% of growth after overnight incubation
Procedure: Deftibactin A was serially diluted in DMSO with a dilution factor of 2, to provide 10 concentrations for all the assays. The MIC is defined as the lowest concentration of compound that inhibited ≥90% or ≥50% of the growth of a microorganism after overnight incubation. Genedata Screener software (Genedata, Inc., Basel, Switzerland) was used to analyze the data and to determine the MICs and calculate the RZ′ factor, to estimate the robustness of the assays. Delftibactin A was tested on two different days and in triplicate.
Broth microdilution was used to determine the minimal inhibitory concentration (MIC) according to the standards of the Clinical and Laboratory Standards Institute (CLSI) or the European Committee on Antimicrobial Susceptibility Testing (EUCAST). Cation-adjusted Mueller-Hinton broth (CAMHB) was used with inoculum of about 5×10^5 cfu ml^−1 of the tested pathogen. Direct suspension of overnight colonies into CAMHB was used for the generation of the bacterial suspension. The tested inhibited compound or supernatant was used in doubling dilutions in 50 μl of CAMHB and inoculated with an equal amount of bacteria in the broth.

[1] = system: vancomycin resistant enterococci (VRE); experiment: Inhibition of VRE by Delftibactin A alone and with antibiotics; assay type: cell-based
Description: FIG. 33 is a graph illustrating that Delftibactin A inhibits Vancomycin Resistant Enterococci (VRE).

Deftia strain 2189 = experiment: Delftibactin A as carrier of gallium; assay type: cell-based, Delftia; settings: with gallium
Description: FIG. 36 is a graph illustrating that Delftibactin A can be used as a carrier of inhibitory antimicrobial agents such as gallium to inhibit harmful bacterial strains such as Deftia strain 2189.

Q: Which “cytotoxic activity (MTT)” value (HepG2) does the source give for `C/C=C(\NC(=O)CNC(=O)C(NC(=O)C(NC(=O)C(C)C(O)C(C)N)C(O)C(=O)O)C(C)O)C(=O)NC(CCCN(O)C=O)C(=O)NC(CO)C(=O)NC(CCCN=C(N)N)C(=O)NC1CCCN(O)C1=O` (stereo not shown) [Delftibactin A] (X1-[ξAsp(3ξ-OH)]TG[Dhb][ξOrn(N(OH)CHO)]SR-{NH(1-OH-2-oxopiperidin-3-yl)}; configuration not given here) here?
A: Its value is “not have cytotoxic activity”.

Q: What about the “cytotoxic activity (MTT)” value (THLE2) of the same molecule?
A: Its value is “not have cytotoxic activity”.

Q: And the MIC50 (C. albicans ATCC64124)?
A: The MIC50 was 16 µg/mL (≈ 15.5 µM).

Q: What about the “inhibition of vancomycin resistant enterococci (VRE)” value [1] of the same molecule?
A: The value was “inhibits”.

Q: What about the “combined antimicrobial effect with clarithromycin on VRE” value ([1]; Delftibactin A 10 μM) of the same molecule?
A: The value was “additive combined antimicrobial effect”.

Q: And the “combined antimicrobial effect with rifampicin on VRE” value ([1]; Delftibactin A 10 μM)?
A: The value was “additive combined antimicrobial effect”.

Q: And the “inhibition of Deftia strain 2189 as carrier of gallium” value (Deftia strain 2189)?
A: The value was “inhibit”.
